We go through three compounds from patent publication US4988828A, “Phenoxypropyl derivatives” (Fujirebio Kabushiki Kaisha, priority 1987, dated 1991).

For one test, the system named is stomach. The test is described as follows: Gastric mucosal protecting activity (ulcer caused by 0.4N-HCl+50% ethanol). The test is classed as in vivo, rat (male Donryu). Conditions: 30 minutes before necrotizing substance. As for the experimental part: Male Donryu rats (150 to 250 g) which had been caused to fast for 24 hours were used. The test compound was administered in a dose of 10 mg/kg. p.o., and 30 minutes later, a necrotizing substance (0.4N-HCl+50% ethanol) was administered orally in a dose of 5 ml/kg. One hour after the administration of the necrotizing substance, the stomach was dissected out and fixed with formalin. The area of ulcer which occurred was measured, and by comparison with a control group, the percent inhibition of the test compound was determined.

In a further test the target is T1, histamine H2 receptor (Cavia porcellus, UniProt P47747).
T1 construct: The right atrium was isolated in the Krebs-Henselite solution; from tissue; host or cells: isolated right atrium of male Hartley-strain guinea pigs
The experiment in a line: Histamine H2 antagonizing activity (isolated guinea pig right atrium, histamine dose-response). Also noted: species or system guinea pig (Hartley-strain). To be noted: 32° C., test compound 1×10^-6, 1×10^-7 M, 10 min before histamine, Van Rossum method, read-out: pA2 (converted).

T1 sequence (P47747 whole entry): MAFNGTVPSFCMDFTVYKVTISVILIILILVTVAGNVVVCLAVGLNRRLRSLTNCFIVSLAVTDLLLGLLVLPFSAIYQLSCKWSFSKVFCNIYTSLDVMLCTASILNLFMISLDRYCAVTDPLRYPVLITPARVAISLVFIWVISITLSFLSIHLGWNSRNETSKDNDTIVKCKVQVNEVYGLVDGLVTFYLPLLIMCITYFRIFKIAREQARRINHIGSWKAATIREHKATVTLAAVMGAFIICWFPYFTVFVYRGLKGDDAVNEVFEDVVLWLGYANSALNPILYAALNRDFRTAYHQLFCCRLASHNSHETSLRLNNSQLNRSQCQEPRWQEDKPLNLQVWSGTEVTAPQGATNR
Experimental for histamine H2 receptor: Hartley-strain guinea pigs (male, weight 300 to 350 g) were killed by a blow on the head, and the heart was extracted. The right atrium was isolated in the Krebs-Henselite solution through which a mixed gas (O2 95%, CO2 5%) was circulated. The right atrium was suspended in an organ bath (30 ml) filled with the Krebs-Henselite solution kept at 32° C. The mixed gas was circulated through the organ bath, and a diastolic tension of 1 g was maintained. Contraction of the right atrium was recorded by a force-displacement transducer, and the heart rate was counted by a heart rate meter interlocked with the transducer.
Histamine (used in the form of dihydrochloride) was added cumulatively to the organ bath in a concentration of 1×10^-8 M to 3×10^-5 M. Thus, the dose-response curve of histamine was obtained. The inside of the organ bath was washed several times, and the test compound (1×10^-6, 1×10^-7 M) was added to the organ bath. Ten minutes later, the dose-response curve of histamine in the presence of the test compound was obtained.
The pA2 value of the test compound was determined from the first histamine dose-response curve and the histamine dose-response curve in the presence of the test compound by the method of J. M. Van Rossum (Arch. Int. Pharmacodyn. Ther., 143-299, 1963).

With `O=C(CSCc1ccco1)NCCCOc1cccc(CN2CCCCC2)c1` [Example 12, N-(3-[3-(piperidinomethyl)phenoxy]propyl)-2-(furfurylthio)acetamide], the “Percent inhibition (area of ulcer, vs control group)” value (from here on “Percent inhibition”) in the test on stomach (10 mg/kg p.o.) is reported as 63%.

With `O=C(C[S+]([O-])Cc1ccco1)NCCCOc1cccc(CN2CCCCC2)c1` (centres unmarked) [Example 13, N-{3-[3-(piperidinomethyl)phenoxy]propyl}-2-(furfurylsulfinyl)acetamide], the “Percent inhibition” value in the test with stomach (10 mg/kg p.o.) amounted to 72%. In addition, on histamine H2 receptor, the Kb is 79.4 nM.

With `CN/C(=N/CCSCc1nc[nH]c1C)NC#N` [cimetidine, reference compound], the “Percent inhibition” value was “No inhibition was observed” with stomach (10 mg/kg p.o.) and 11% in the test with stomach (30 mg/kg p.o.).
